According to ChEMBL document CHEMBL6083277, “Discovery of SZJK-0421: A Novel Potent, Low Toxicity, Selective Second Generation of CRM1 Inhibitor for the Treatment of Both Hematological and Solid Tumors” (J Med Chem, 2024):
Calls of active or inactive are those of the source. The calls are words filed in the database; no cut-off is given here.

System: MM1.S
Assay: Antiproliferative activity against human MM1.S cells assessed as inhibition of cell growth incubated for 72 hrs by celltiter-glo assay
Assay type: functional, cell-based

| SMILES | Activity | IC50 [nM] |
| --- | --- | --- |
| CN(C)c1ncc(/C(=C\c2cnn(-c3cc(C(F)(F)F)cc(C(F)(F)F)c3)c2)C(N)=O)cn1 | inactive | – |
| CONC(=O)/C(=C/n1cnc(-c2cc(C(F)(F)F)cc(C(F)(F)F)c2)n1)c1cnc(Cl)nc1 | – | 485 |
| N#Cc1ccc(/C(=C\n2ccc(-c3cc(C(F)(F)F)cc(C(F)(F)F)c3)n2)C(N)=O)cn1 | – | 880 |
| Cc1ccc(/C(=C\n2cnc(-c3cc(C(F)(F)F)nc(C(F)(F)F)c3)n2)C(N)=O)cn1 | – | 245 |
| CONC(=O)/C(=C/n1cnc(-c2cc(C(F)(F)F)cc(C(F)(F)F)c2)n1)c1ccc(C#N)nc1 | – | 185 |
| O=C(NCc1cccnc1)/C(=C/n1cnc(-c2cc(C(F)(F)F)cc(C(F)(F)F)c2)n1)c1cncnc1 | – | 1400 |
| CC(C)(C)NNC(=O)/C(=C/n1cnc(-c2cc(C(F)(F)F)cc(C(F)(F)F)c2)n1)c1cncnc1 | – | 332 |
| O=C(NC1CCCCCC1)/C(=C/n1cnc(-c2cc(C(F)(F)F)cc(C(F)(F)F)c2)n1)c1cncnc1 | – | 321 |
| NC(=O)/C=C(\c1cncc(F)c1)c1cnn(-c2cc(C(F)(F)F)cc(C(F)(F)F)c2)c1 | inactive | – |
| NC(=O)/C(=C/c1cnn(-c2cc(C(F)(F)F)cc(C(F)(F)F)c2)c1)c1cncnc1 | – | 1750 |
| CONC(=O)/C(=C/n1cnc(-c2cc(C(F)(F)F)nc(C(F)(F)F)c2)n1)c1cncnc1 | – | 198 |
| N#Cc1cn(/C=C(/C(N)=O)c2cncnc2)nc1-c1cc(C(F)(F)F)cc(C(F)(F)F)c1 | – | 1220 |
| CN(C)c1ncc(/C(=C\n2cnc(-c3cc(C(F)(F)F)cc(C(F)(F)F)c3)n2)C(N)=O)cn1 | – | 1310 |
| NC(=O)/C(=C/n1cnc(-c2cc(C(F)(F)F)cc(C(F)(F)F)c2)n1)c1cccc2cccnc12 | – | 447 |
| NC(=O)/C(=C/n1cnc(-c2cc(C(F)(F)F)cc(C(F)(F)F)c2)n1)c1ccccc1 | – | 346 |
| CONC(=O)/C(=C/n1cnc(-c2cc(C(F)(F)F)cc(C(F)(F)F)c2)n1)c1ccncc1 | – | 202 |
| NC(=O)/C(=C/n1cnc(-c2cc(C(F)(F)F)cc(C(F)(F)F)c2)n1)c1c[nH]c2ccccc12 | – | 313 |
| CON(C)C(=O)/C(=C/n1cnc(-c2cc(C(F)(F)F)cc(C(F)(F)F)c2)n1)c1cncnc1 | – | 75.7 |
| COC(=O)CNC(=O)/C(=C/n1cnc(-c2cc(C(F)(F)F)cc(C(F)(F)F)c2)n1)c1cncnc1 | – | 99.3 |
| NC(=O)/C(=C/n1ccc(-c2cc(C(F)(F)F)cc(C(F)(F)F)c2)n1)c1ccncc1 | – | 1430 |

| SMILES | Activity | IC50 [nM] |
| --- | --- | --- |
| NC(=O)/C(=C/c1cnn(-c2cc(C(F)(F)F)cc(C(F)(F)F)c2)c1)c1ccncc1 | inactive | – |
| NC(=O)/C(=C/n1cnc(-c2cc(C(F)(F)F)cc(C(F)(F)F)c2)n1)c1ccc(C(F)(F)F)nc1 | – | 1660 |
| CONC(=O)/C(=C/n1cnc(-c2cc(C(F)(F)F)nc(C(F)(F)F)c2)n1)c1ccc(C)nc1 | – | 207 |
| CONC(=O)/C(=C/n1cnc(-c2cc(OC(=O)CCNC(=O)CCCC[C@@H]3SC[C@@H]4NC(=O)N[C@@H]43)cc(C(F)(F)F)c2)n1)c1cncnc1 | – | 1700 |
| NC(=O)/C(=C/n1cnc(-c2cc(C(F)(F)F)cc(C(F)(F)F)c2)n1)c1ccncc1 | – | 128 |
| NC(=O)/C(=C/n1ccc(-c2cc(C(F)(F)F)cc(C(F)(F)F)c2)n1)c1cncnc1 | – | 1210 |
| NC(=O)/C(=C/n1cnc(-c2cc(C(F)(F)F)nc(C(F)(F)F)c2)n1)c1cncnc1 | – | 226 |
| NC(=O)/C(=C/c1cnn(-c2cc(C(F)(F)F)cc(C(F)(F)F)c2)c1)c1ccc(C(F)(F)F)nc1 | – | 1340 |
| Cc1ccc(/C(=C\C(N)=O)c2cnn(-c3cc(C(F)(F)F)cc(C(F)(F)F)c3)c2)cn1 | inactive | – |
| Cc1cn(/C=C(/C(N)=O)c2cncnc2)nc1-c1cc(C(F)(F)F)cc(C(F)(F)F)c1 | inactive | – |
| COc1ncc(/C(=C\n2cnc(-c3cc(C(F)(F)F)cc(C(F)(F)F)c3)n2)C(N)=O)cn1 | – | 646 |
| O=C(NC1CCOCC1)/C(=C/n1cnc(-c2cc(C(F)(F)F)cc(C(F)(F)F)c2)n1)c1cncnc1 | – | 142 |
| NC(=O)/C=C(\c1cncnc1)c1cnn(-c2cc(C(F)(F)F)cc(C(F)(F)F)c2)c1 | inactive | – |
| COc1ncc(/C(=C\c2cnn(-c3cc(C(F)(F)F)cc(C(F)(F)F)c3)c2)C(N)=O)cn1 | – | 2260 |
| CONC(=O)/C(=C/n1cnc(-c2cc(C(F)(F)F)cc(C(F)(F)F)c2)n1)c1ccc(OC)nc1 | – | 166 |
| Cc1ccc(/C(=C\n2cnc(-c3cc(C(F)(F)F)cc(C(F)(F)F)c3)n2)C(N)=O)cn1 | inactive | – |
| NC(=O)/C(=C/n1ccc(-c2cc(C(F)(F)F)cc(C(F)(F)F)c2)n1)c1ccc(C(F)(F)F)nc1 | – | 1920 |
| N#Cc1ccc(/C(=C\n2cnc(-c3cc(C(F)(F)F)cc(C(F)(F)F)c3)n2)C(N)=O)cn1 | – | 176 |
| NC(=O)/C=C(\c1ccc(F)nc1)c1cnn(-c2cc(C(F)(F)F)cc(C(F)(F)F)c2)c1 | inactive | – |
| NC(=O)/C=C(\c1ccc(C(F)(F)F)nc1)c1cnn(-c2cc(C(F)(F)F)cc(C(F)(F)F)c2)c1 | inactive | – |

| SMILES | Activity | IC50 [nM] |
| --- | --- | --- |
| CCONC(=O)/C(=C/n1cnc(-c2cc(C(F)(F)F)cc(C(F)(F)F)c2)n1)c1cncnc1 | – | 111 |
| N#Cc1ccc(/C(=C\C(N)=O)c2cnn(-c3cc(C(F)(F)F)cc(C(F)(F)F)c3)c2)cn1 | inactive | – |
| O=C(NC1CC1)/C(=C/n1cnc(-c2cc(C(F)(F)F)cc(C(F)(F)F)c2)n1)c1cncnc1 | – | 178 |
| CONC(=O)/C(=C/n1cnc(-c2cc(C(F)(F)F)cc(C(F)(F)F)c2)n1)c1ccsc1 | – | 990 |
| CONC(=O)/C(=C/n1cnc(-c2cc(C(F)(F)F)cc(C(F)(F)F)c2)n1)c1ccc(C#N)cc1 | – | 1040 |
| COc1ncc(/C(=C\C(N)=O)c2cnn(-c3cc(C(F)(F)F)cc(C(F)(F)F)c3)c2)cn1 | inactive | – |
| CN(C)c1ncc(/C(=C\C(N)=O)c2cnn(-c3cc(C(F)(F)F)cc(C(F)(F)F)c3)c2)cn1 | inactive | – |
| NC(=O)/C(=C/n1cnc(-c2cc(C(F)(F)F)cc(C(F)(F)F)c2)n1)c1cncc(F)c1 | – | 259 |
| CONC(=O)/C(=C/n1cnc(-c2cc(C(F)(F)F)cc(C(F)(F)F)c2)n1)c1ccn(C)n1 | – | 1200 |
| NC(=O)/C=C(\c1ccncc1)c1cnn(-c2cc(C(F)(F)F)cc(C(F)(F)F)c2)c1 | inactive | – |
| NC(=O)/C(=C/n1cnc(-c2cc(C(F)(F)F)cc(C(F)(F)F)c2)n1)c1ccc(F)nc1 | – | 1470 |
| CNC(=O)/C(=C/n1cnc(-c2cc(C(F)(F)F)cc(C(F)(F)F)c2)n1)c1cncnc1 | – | 189 |
| O=C(NC12CC3CCC1CC(C3)C2)/C(=C/n1cnc(-c2cc(C(F)(F)F)cc(C(F)(F)F)c2)n1)c1cncnc1 (stereo not given) | – | 323 |
| O=C(NC1CCCC1)/C(=C/n1cnc(-c2cc(C(F)(F)F)cc(C(F)(F)F)c2)n1)c1cncnc1 | – | 292 |
| NC(=O)/C(=C/c1cnn(-c2cc(C(F)(F)F)cc(C(F)(F)F)c2)c1)c1ccc(F)nc1 | inactive | – |
| O=C(NNc1cnccn1)/C(=C/n1cnc(-c2cc(C(F)(F)F)cc(C(F)(F)F)c2)n1)c1cncnc1 | – | 328 |
| CONC(=O)/C(=C/n1cnc(-c2cc(C(F)(F)F)cc(C(F)(F)F)c2)n1)c1cnc(OC)nc1 | – | 244 |
| N#Cc1ccc(/C(=C\c2cnn(-c3cc(C(F)(F)F)cc(C(F)(F)F)c3)c2)C(N)=O)cn1 | – | 1410 |
| O=C(NC1CCCCC1)/C(=C/n1cnc(-c2cc(C(F)(F)F)cc(C(F)(F)F)c2)n1)c1cncnc1 | – | 572 |
| Cc1ccc(/C(=C\c2cnn(-c3cc(C(F)(F)F)cc(C(F)(F)F)c3)c2)C(N)=O)cn1 | inactive | – |
